Here are results for 15 compounds from patent US9533977B2, “Oxazolidinone derivative as CETP inhibitor, its preparation method, and pharmaceutical composition comprising the same” (DONG-A ST CO., LTD., priority 2013, dated 2017).

Like-named read-outs stand apart in the source and are kept apart here.

Series [1] addresses T1, CETP (Homo sapiens, UniProt P11597).
T1 construct: from tissue; host or cells: human plasma from healthy men
T1 sequence (P11597 18-493): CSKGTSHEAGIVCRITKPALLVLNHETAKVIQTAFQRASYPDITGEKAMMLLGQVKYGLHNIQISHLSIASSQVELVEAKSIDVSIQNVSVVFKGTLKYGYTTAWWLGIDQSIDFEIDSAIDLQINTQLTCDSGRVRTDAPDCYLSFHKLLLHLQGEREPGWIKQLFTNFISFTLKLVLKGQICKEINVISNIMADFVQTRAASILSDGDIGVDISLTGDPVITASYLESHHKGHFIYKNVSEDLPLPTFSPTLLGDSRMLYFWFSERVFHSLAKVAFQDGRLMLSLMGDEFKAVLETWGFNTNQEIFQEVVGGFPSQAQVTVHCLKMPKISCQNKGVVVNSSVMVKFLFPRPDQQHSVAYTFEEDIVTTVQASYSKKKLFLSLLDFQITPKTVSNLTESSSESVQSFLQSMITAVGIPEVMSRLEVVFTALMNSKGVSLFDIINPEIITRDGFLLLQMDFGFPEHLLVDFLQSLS
The series can be described thus: Inhibitory activity against CETP in human plasma (Roar CETP activity kit, fluorescence). The format is biochemical. The settings on record: plasma from healthy men diluted 1:10 in assay buffer, 37° C., 3 hrs, fluorescence 465/535 nm; read-out: IC50, Inhibition of CETP Activity in Human Plasma. The essentials:
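Healthy male human plasma, diluted 1:10, incubated 3 hrs at 37° C with donor/acceptor fluorescent substrates and compound (0.01–10000 nM, DMSO). Fluorescence at ex 465/em 535 nm, background-corrected against no-plasma and no-compound wells; IC50 from sigmoidal fit.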

Series [2] relates to CETP. The series is described as follows: Effect on CETP activity in hamster administered with single dose. The format is in vivo, Golden Syrian hamsters. To be noted: hamsters, single oral dose 100 mg/kg, blood 0.5-24 hrs after administration, compared to pre-treatment. Here is the method: Each of the compounds of the Examples was orally administered at a dose of 100 mg/kg to three 7-week-old male Golden Syrian hamsters per group. Blood samples were taken from the retro-orbital plexus before administration and 0.5, 1, 2, 4, 6, 8, and 24 hrs after administration, and measured for blood CETP activity using a Roar CETP activity assay kit (Cat#: RB-CETP, Roar Biomedical Inc.).

Series [3] is described as follows: Drug concentration in blood and tissues of hamsters administered with multiple doses. The class given is in vivo, Golden Syrian Hamsters. To be noted: oral 10 mg/kg every day for two weeks; for concentration at 2 h: male, Golden Syrian, hamster, two hours after the final administration. Here is the method:
(§1) Each of the compounds of Examples 58, 96, 103 and 125 was orally administered at a dose of 10 mg/kg to 10 7-week-old male Golden Syrian Hamsters per group, every day for two weeks. Two hours after the final administration, blood samples were taken from the hamsters which then underwent an autopsy to analyze blood lipid levels and drug concentrations in blood and tissues (adipose tissues and liver)

The subject of the next series is Blood HDL-C. The series can be described thus: Blood HDL-C level in multi-dosed hamsters. The format is in vivo, Golden Syrian Hamsters. The settings on record: oral 10 mg/kg every day for two weeks, blood two hours after the final administration. The protocol:
as §1

[4] abbreviates: adipose tissue, read-out: Drug Concentration Adipose Tissue.
Setting [5] is: blood, read-out: Drug Concentration Blood.
Where [6] appears, read: liver, read-out: Drug Concentration Liver Tissue.

Regarding `CCN(c1ncc(-c2cccn2C)cc1CN1C(=O)O[C@H](c2cc(C(F)(F)F)cc(C(F)(F)F)c2)[C@@H]1C)C1CCCCC1` [Example 56, (4S,5R)-5-[3,5-bis(trifluoromethyl)phenyl]-4-methyl-3-({[2-(ethyl)(cyclohexyl-4-yl)amino]-5-(1-methyl-1H-pyrrol-2-yl)pyridin-3-yl}methyl) oxazolidin-2-one], at CETP [1], the IC50 (in general, the concentration that inhibits the measured activity by half) was determined as 10.9 nM. Moreover, in the series with CETP [2], the “Relative Maximal Inhibition of CETP Activity to Pre-Administration (%)” value (“Relative Maximal Inhibition … (%)” below) turned out to be 49%.

Regarding `CCN(c1ncc(-c2c(C)noc2C)nc1CN1C(=O)O[C@H](c2cc(C(F)(F)F)cc(C(F)(F)F)c2)[C@@H]1C)C1CCCCC1` [Example 96, (4S,5R)-5-[3,5-bis(trifluoromethyl)phenyl]-4-methyl-3-({[2-(ethyl)(cyclohexyl)amino]-5-(3,5-dimethyl-isoxazol-4-yl)pyrazin-3-yl}methyl)-oxazolidin-2-one], the IC50 on CETP [1] is 2 nM. For the same compound, the concentration at 2 h in series [3] (setting [4]) was determined as 7900 ng/g; in series [3] (setting [5]), 309 ng/mL; in series [3] (setting [6]), 128 ng/g. For the same compound, the “Distribution between blood, liver and adipose tissues (in words)” value in series [3] is “at low levels in blood and liver tissues, but at high levels in adipose tissues”. For the same compound, the “Relative Increase HDL-C (%) to VC (Vehicle)” value (“Relative Increase HDL-C (%)” for short) in the series on Blood HDL-C amounted to 48%. Also, in the series with CETP [2], the “Relative Maximal Inhibition … (%)” value is recorded as 56%.

Turning to `CCCN(C[C@H]1CC[C@H](CC(=O)O)CC1)c1ncc(N2CCCC2)nc1CN1C(=O)OC(c2cc(C(F)(F)F)cc(C(F)(F)F)c2)[C@@H]1C` (stereo partly drawn) [Example 124], the half-maximal inhibitory concentration (IC50) at CETP [1] is 7.13 nM. Moreover, the “Relative Maximal Inhibition … (%)” value with CETP [2] was 52%.

With `CCN(c1ncc(-c2cccn2C)cc1CN1C(=O)O[C@H](c2cc(C(F)(F)F)cc(C(F)(F)F)c2)[C@@H]1C)C1CCOCC1` [Example 50, (4S,5R)-5-[3,5-bis(trifluoromethyl)phenyl]-4-methyl-3-({[2-(ethyl)(tetrahydro-2H-pyran-4-yl)amino]-5-(1-methyl-1H-pyrrol-2-yl)pyridin-3-yl}methyl)-oxazolidin-2-one], at CETP [1], the IC50 was found to be 11.1 nM. Moreover, the “Relative Maximal Inhibition … (%)” value with CETP [2] is on record as 57%.

Turning to `CCN(c1ncc(N2CCCC2C)cc1CN1C(=O)O[C@H](c2cc(C(F)(F)F)cc(C(F)(F)F)c2)[C@@H]1C)C1CCCCC1` (stereo partly drawn) [Example 89, (4S,5R)-5-[3,5-bis(trifluoromethyl)phenyl]-4-methyl-3-({[2-(ethyl)(cyclohexyl)amino]-5-(2-methyl-pyrrolidin-1-yl)pyridin-3-yl}methyl)-oxazolidin-2-one], the concentration for half-maximal inhibition (IC50) on CETP [1] came to 7 nM. The “Relative Maximal Inhibition … (%)” value in the series with CETP [2] was 53%.

Consider `CCN(C[C@H]1CC[C@H](CC(=O)O)CC1)c1ncc(N2CCCC2)nc1CN1C(=O)OC(c2cc(C(F)(F)F)cc(C(F)(F)F)c2)[C@@H]1C` (stereo partly drawn) [Example 103], for which the IC50 at CETP [1] was 3.26 nM. Moreover, the “Relative Increase HDL-C (%)” value in the series on Blood HDL-C was 47%. For the same compound, the “Relative Maximal Inhibition … (%)” value in the series on CETP [2] is 52%.

On to `CCN(c1ncc(-c2csnc2C)cc1CN1C(=O)O[C@H](c2cc(C(F)(F)F)cc(C(F)(F)F)c2)[C@@H]1C)C1CCCCC1` [Example 87, (4S,5R)-5-[3,5-bis(trifluoromethyl)phenyl]-4-methyl-3-({[2-(ethyl)(cyclohexyl)amino]-5-(3-methyl-isothioxazol-4-yl)pyridin-3-yl}methyl)-oxazolidin-2-one], for which the IC50 on CETP [1] was determined as 5.6 nM. Also, the “Relative Maximal Inhibition … (%)” value with CETP [2] is 59%.

Regarding `CCCN(CC1CCC(CC(=O)O)CC1)c1ncc(C2CC2)nc1CN1C(=O)OC(c2cc(C(F)(F)F)cc(C(F)(F)F)c2)C1C` (stereo not drawn) [Example 125], the IC50 on CETP [1] stood at 40.3 nM. Further, the “Relative Increase HDL-C (%)” value in the series with Blood HDL-C is reported as 27%. Also, in the series on CETP [2], the “Relative Maximal Inhibition … (%)” value is listed as 56%.

Turning to `CCN(c1ncc(N2CCCC2)cc1CN1C(=O)O[C@H](c2cc(C(F)(F)F)cc(C(F)(F)F)c2)[C@@H]1C)C1CCCCC1` [Example 88, (4S,5R)-5-[3,5-bis(trifluoromethyl)phenyl]-4-methyl-3-({[2-(ethyl)(cyclohexyl)amino]-5-(pyrrolidin-1-yl)pyridin-3-yl}methyl)-oxazolidin-2-one], the IC50 on CETP [1] was 10.7 nM. In addition, the “Relative Maximal Inhibition … (%)” value with CETP [2] was 45%.

On to `CCN(c1ncc(-c2ccsc2)cc1CN1C(=O)O[C@H](c2cc(C(F)(F)F)cc(C(F)(F)F)c2)[C@@H]1C)C1CCCCC1` [Example 77, (4S,5R)-5-[3,5-bis(trifluoromethyl)phenyl]-4-methyl-3-({[2-(ethyl)(cyclohexyl)amino]-5-(thiophen-3-yl)pyridin-3-yl}methyl)-oxazolidin-2-one], for which, on CETP [1], the concentration for half-maximal inhibition (IC50) came out at 2.1 nM. Further, the “Relative Maximal Inhibition … (%)” value in the series with CETP [2] was 50%.

Consider `CCN(CC1CCC(CC(=O)O)CC1)c1ncc(-c2ccsc2)nc1CN1C(=O)OC(c2cc(C(F)(F)F)cc(C(F)(F)F)c2)C1C` [Example 105, trans-4-({[3-({(4S,5S)-5-[3,5-bis(trifluoromethyl)phenyl]-4-methyl-2-oxazolidin-3-yl}methyl)-5-(thiophen-3-yl)pyrazin-2-yl]{[N-(ethyl)aminomethyl]cyclohexyl)}acetic acid], for which, on CETP [1], the IC50 stood at 0.8 nM. For the same compound, the “Relative Maximal Inhibition … (%)” value in the series on CETP [2] came out at 72%.

In the case of `CCN(c1ncc(-c2cccn2C(=O)OC(C)(C)C)cc1CN1C(=O)O[C@@H](c2cc(C(F)(F)F)cc(C(F)(F)F)c2)[C@@H]1C)C1CCCCC1` [Example 76, t-butyl 2-{5-({(4S,5S)-5-[3,5-bis(trifluoromethyl)phenyl]-4-methyl-2-oxo-oxazolidin-3-yl}methyl)-6-[(cyclohexyl)(ethyl)amino]pyridin-3-yl}-1H-pyrrole-1-carboxylate], at CETP [1], the concentration for half-maximal inhibition (IC50) was 87.4 nM.

Regarding `CCOC(=O)c1c(C)noc1-c1cnc(N(CC)C2CCCCC2)c(CN2C(=O)O[C@H](c3cc(C(F)(F)F)cc(C(F)(F)F)c3)[C@@H]2C)c1` [Example 74], at CETP [1], the IC50 stood at 63.2 nM.

Regarding `CCN(c1ncc(C(F)(F)F)cc1CN1C(=O)O[C@H](c2cc(C(F)(F)F)cc(C(F)(F)F)c2)[C@@H]1C)C1CCN(C)CC1` [Example 29, (4S,5R)-5-[3,5-bis(trifluoromethyl)phenyl]-4-methyl-3-({[2-(ethyl)(1-methylpiperidin-4-yl)amino]-5-(trifluoromethyl)pyridin-3-yl}methyl)-oxazolidin-2-one], the half-inhibitory concentration (IC50) on CETP [1] is 540 nM.

Take `CCN(c1ncc(-c2c(C)noc2C)cc1CN1C(=O)O[C@H](c2cc(C(F)(F)F)cc(C(F)(F)F)c2)[C@@H]1C)C1CCCCC1` [Example 58, (4S,5R)-5-[3,5-bis(trifluoromethyl)phenyl]-4-methyl-3-({[2-(ethyl)(cyclohexyl)amino]-5-(3,5-dimethylisoxazol-4-yl)pyridin-3-yl}methyl)-oxazoliclin-2-one]: the IC50 on CETP [1] stood at 2.7 nM. For the same compound, the concentration at 2 h was 10200 ng/g in series [3] (setting [4]), 606 ng/mL in series [3] (setting [5]) and 415 ng/g in series [3] (setting [6]). In addition, the “Distribution between blood, liver and adipose tissues (in words)” value in series [3] was “at low levels in blood and liver tissues, but at high levels in adipose tissues”. The “Relative Increase HDL-C (%)” value with Blood HDL-C was found to be 47%. In addition, the “Relative Maximal Inhibition … (%)” value in the series on CETP [2] is given as 55%.
